Data taken from PubChem BioAssay AID2060895 (Molecular Pharmacology Branch, DTP, NCI, 2025).

Test system: PDC 899932-113-R3-J6 complex spheroid viability
Test: Anticancer human tumor 899932-113-R3-J6-PDC patient-derived melanoma cell line growth inhibition [RAS]
Details: for IC50: curve of first compound; for viability, T/C: stronger effect = lower value
Procedure, shortened: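 Tumour cells grown as complex spheroids with HUVEC endothelial cells and mesenchymal stem cells, treated with RAS pathway inhibitor combinations. Each agent spans half-log steps from near clinical Cmax, or 10 microM where Cmax is unknown.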

[1] = second compound 0.000949 µM, first compound 0.0316 µM
[2] = second compound 0.000949 µM, first compound 0.1 µM
[3] = second compound 0.000949 µM, first compound 0.316 µM
[4] = second compound 0.000949 µM, first compound 1 µM
[5] = second compound 0.000949 µM, first compound 3.16 µM
[6] = second compound 0.000949 µM, first compound 10 µM
[7] = second compound 0.003 µM, first compound 0.0316 µM
[8] = second compound 0.003 µM, first compound 0.1 µM
[9] = second compound 0.003 µM, first compound 0.316 µM
[10] = second compound 0.003 µM, first compound 1 µM
[11] = second compound 0.003 µM, first compound 3.16 µM
[12] = second compound 0.003 µM, first compound 10 µM
[13] = second compound 0.00949 µM, first compound 0.0316 µM
[14] = second compound 0.00949 µM, first compound 0.1 µM
[15] = second compound 0.00949 µM, first compound 0.316 µM
[16] = second compound 0.00949 µM, first compound 1 µM
[17] = second compound 0.00949 µM, first compound 3.16 µM
[18] = second compound 0.00949 µM, first compound 10 µM
[19] = second compound 0.03 µM, first compound 0.0316 µM
[20] = second compound 0.03 µM, first compound 0.1 µM
[21] = second compound 0.03 µM, first compound 0.316 µM
[22] = second compound 0.03 µM, first compound 1 µM
[23] = second compound 0.03 µM, first compound 3.16 µM
[24] = second compound 0.03 µM, first compound 10 µM
[25] = second compound 0.0949 µM, first compound 0.0316 µM
[26] = second compound 0.0949 µM, first compound 0.1 µM
[27] = second compound 0.0949 µM, first compound 0.316 µM
[28] = second compound 0.0949 µM, first compound 1 µM
[29] = second compound 0.0949 µM, first compound 3.16 µM
[30] = second compound 0.0949 µM, first compound 10 µM
[31] = second compound 0.3 µM, first compound 0.0316 µM
[32] = second compound 0.3 µM, first compound 0.1 µM
[33] = second compound 0.3 µM, first compound 0.316 µM
[34] = second compound 0.3 µM, first compound 1 µM
[35] = second compound 0.3 µM, first compound 3.16 µM
[36] = second compound 0.3 µM, first compound 10 µM
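Wherever viability, T/C is given: spheroids exposed to agents for seven days before readout; 100% = DMSO vehicle control wells.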

Question: How did the IC50 (second compound 0.000949 µM) turn out when `CC(=O)OC12COC1CC(O)C1(C)C(=O)C(O)C3=C(C)C(OC(=O)C(O)C(NC(=O)OC(C)(C)C)c4ccccc4)CC(O)(C(OC(=O)c4ccccc4)C21)C3(C)C` (centres undefined) + CCn1c(-c2cccnc2C(C)OC)c2c3cc(ccc31)N1CCOC(CC(NC(=O)C(C(C)C)N(C)C(=O)C3(F)CCN(C(=O)C#CC(C)(C)N(C)C)CC3)C(=O)N3CCCC(N3)C(=O)OCC(C)(C)C2)C1 was run?
Answer: Its IC50 is under 31.6 nM.

Question: And the IC50 (second compound 0.003 µM)?
Answer: The IC50 was under 31.6 nM.

Question: What about the IC50 (second compound 0.00949 µM) of the same compound?
Answer: Its IC50 is under 31.6 nM.

Question: What about the IC50 (second compound 0.03 µM) of the same compound?
Answer: Its IC50 is under 31.6 nM.

Question: What about the IC50 (second compound 0.0949 µM) of the same compound?
Answer: Its IC50 is under 31.6 nM.

Question: And the IC50 (second compound 0.3 µM)?
Answer: Its IC50 is under 31.6 nM.

Question: And the viability, T/C [1]?
Answer: The viability, T/C was 31.4%.

Question: And the viability, T/C [2]?
Answer: The viability, T/C was 34.3%.

Question: What about the viability, T/C [3] of the same compound?
Answer: The viability, T/C was 33%.

Question: And the viability, T/C [4]?
Answer: Its viability, T/C is 45.6%.

Question: And the viability, T/C [5]?
Answer: The viability, T/C was 60.8%.

Question: And the viability, T/C [6]?
Answer: The viability, T/C was 70.1%.

Question: What about the viability, T/C [7] of the same compound?
Answer: Its viability, T/C is 29.2%.

Question: And the viability, T/C [8]?
Answer: Its viability, T/C is 37.1%.

Question: What about the viability, T/C [9] of the same compound?
Answer: Its viability, T/C is 36.8%.

Question: And the viability, T/C [10]?
Answer: Its viability, T/C is 39.7%.

Question: What about the viability, T/C [11] of the same compound?
Answer: Its viability, T/C is 58.7%.

Question: And the viability, T/C [12]?
Answer: Its viability, T/C is 68.9%.

Question: What about the viability, T/C [13] of the same compound?
Answer: The viability, T/C was 33.8%.

Question: And the viability, T/C [14]?
Answer: Its viability, T/C is 36.6%.

Question: What about the viability, T/C [15] of the same compound?
Answer: The viability, T/C was 35.1%.

Question: What about the viability, T/C [16] of the same compound?
Answer: The viability, T/C was 48.4%.

Question: What about the viability, T/C [17] of the same compound?
Answer: The viability, T/C was 61%.

Question: What about the viability, T/C [18] of the same compound?
Answer: The viability, T/C was 61%.

Question: And the viability, T/C [19]?
Answer: The viability, T/C was 34.9%.

Question: What about the viability, T/C [20] of the same compound?
Answer: Its viability, T/C is 38%.

Question: And the viability, T/C [21]?
Answer: Its viability, T/C is 32.9%.

Question: What about the viability, T/C [22] of the same compound?
Answer: Its viability, T/C is 41.7%.

Question: And the viability, T/C [23]?
Answer: The viability, T/C was 67.3%.

Question: And the viability, T/C [24]?
Answer: The viability, T/C was 67.4%.

Question: What about the viability, T/C [25] of the same compound?
Answer: Its viability, T/C is 34.8%.

Question: And the viability, T/C [26]?
Answer: Its viability, T/C is 38.4%.

Question: And the viability, T/C [27]?
Answer: Its viability, T/C is 37.3%.

Question: And the viability, T/C [28]?
Answer: The viability, T/C was 52.1%.

Question: And the viability, T/C [29]?
Answer: The viability, T/C was 59.2%.

Question: What about the viability, T/C [30] of the same compound?
Answer: The viability, T/C was 65.5%.

Question: And the viability, T/C [31]?
Answer: The viability, T/C was 28.9%.

Question: What about the viability, T/C [32] of the same compound?
Answer: Its viability, T/C is 39.4%.

Question: And the viability, T/C [33]?
Answer: Its viability, T/C is 40.8%.

Question: What about the viability, T/C [34] of the same compound?
Answer: Its viability, T/C is 44.5%.

Question: What about the viability, T/C [35] of the same compound?
Answer: The viability, T/C was 64.3%.

Question: And the viability, T/C [36]?
Answer: Its viability, T/C is 63.1%.

Question: How did the IC50 (second compound 0.000949 µM) turn out when `CCC(CC)c1cc(NC2CCC(N)C2)n2nccc2n1` (centres undefined) + CCn1c(-c2cccnc2C(C)OC)c2c3cc(ccc31)N1CCOC(CC(NC(=O)C(C(C)C)N(C)C(=O)C3(F)CCN(C(=O)C#CC(C)(C)N(C)C)CC3)C(=O)N3CCCC(N3)C(=O)OCC(C)(C)C2)C1 was run?
Answer: Its IC50 is 1460 nM.

Question: What about the IC50 (second compound 0.003 µM) of the same compound?
Answer: The IC50 was 1580 nM.

Question: And the IC50 (second compound 0.00949 µM)?
Answer: Its IC50 is 1500 nM.

Question: And the IC50 (second compound 0.03 µM)?
Answer: Its IC50 is 1490 nM.

Question: And the IC50 (second compound 0.0949 µM)?
Answer: Its IC50 is 1310 nM.

Question: What about the IC50 (second compound 0.3 µM) of the same compound?
Answer: The IC50 was 1220 nM.

Question: And the viability, T/C [1]?
Answer: The viability, T/C was 104%.

Question: And the viability, T/C [2]?
Answer: Its viability, T/C is 86.7%.

Question: And the viability, T/C [3]?
Answer: The viability, T/C was 94.8%.

Question: What about the viability, T/C [4] of the same compound?
Answer: Its viability, T/C is 73.8%.

Question: What about the viability, T/C [5] of the same compound?
Answer: The viability, T/C was 1.84%.

Question: And the viability, T/C [6]?
Answer: The viability, T/C was 0.94%.

Question: What about the viability, T/C [7] of the same compound?
Answer: Its viability, T/C is 95.8%.

Question: And the viability, T/C [8]?
Answer: Its viability, T/C is 85.5%.

Question: And the viability, T/C [9]?
Answer: The viability, T/C was 90.9%.

Question: What about the viability, T/C [10] of the same compound?
Answer: The viability, T/C was 81.7%.

Question: What about the viability, T/C [11] of the same compound?
Answer: Its viability, T/C is 1.51%.

Question: What about the viability, T/C [12] of the same compound?
Answer: The viability, T/C was 1.01%.

Question: What about the viability, T/C [13] of the same compound?
Answer: The viability, T/C was 94.7%.

Question: What about the viability, T/C [14] of the same compound?
Answer: The viability, T/C was 82.3%.

Question: What about the viability, T/C [15] of the same compound?
Answer: Its viability, T/C is 87.1%.

Question: And the viability, T/C [16]?
Answer: Its viability, T/C is 76.7%.

Question: What about the viability, T/C [17] of the same compound?
Answer: Its viability, T/C is 1.18%.

Question: What about the viability, T/C [18] of the same compound?
Answer: Its viability, T/C is 0.88%.

Question: What about the viability, T/C [19] of the same compound?
Answer: The viability, T/C was 86.7%.

Question: What about the viability, T/C [20] of the same compound?
Answer: The viability, T/C was 77.1%.

Question: What about the viability, T/C [21] of the same compound?
Answer: Its viability, T/C is 85.3%.

Question: What about the viability, T/C [22] of the same compound?
Answer: Its viability, T/C is 75.9%.

Question: And the viability, T/C [23]?
Answer: The viability, T/C was 1.56%.

Question: What about the viability, T/C [24] of the same compound?
Answer: The viability, T/C was 0.52%.

Question: What about the viability, T/C [25] of the same compound?
Answer: The viability, T/C was 80.2%.

Question: What about the viability, T/C [26] of the same compound?
Answer: The viability, T/C was 83.4%.

Question: And the viability, T/C [27]?
Answer: The viability, T/C was 87.5%.

Question: What about the viability, T/C [28] of the same compound?
Answer: Its viability, T/C is 64.8%.

Question: What about the viability, T/C [29] of the same compound?
Answer: The viability, T/C was 1.71%.

Question: What about the viability, T/C [30] of the same compound?
Answer: The viability, T/C was 0.88%.

Question: And the viability, T/C [31]?
Answer: The viability, T/C was 79.8%.

Question: And the viability, T/C [32]?
Answer: Its viability, T/C is 73.5%.

Question: What about the viability, T/C [33] of the same compound?
Answer: Its viability, T/C is 77.9%.

Question: And the viability, T/C [34]?
Answer: The viability, T/C was 60%.

Question: And the viability, T/C [35]?
Answer: Its viability, T/C is 1.44%.

Question: What about the viability, T/C [36] of the same compound?
Answer: The viability, T/C was 0.36%.
